From patent publication US12319672B2, “Alpha-D-galactopyranoside derivatives” (Idorsia Pharmaceuticals Ltd, priority 2019, dated 2025)

Assays:
[1] = target: human Gal-3 (hGal-3) (Homo sapiens (Human), UniProt P17931); assay: Competitive binding assay: binding of biotinylated hGal-3 to microplate-adsorbed asialofetuin (ASF); details: Activity on hGal-3; mean values of several measurements
Procedure, shortened: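 Compounds in DMSO dilution series competed with 300-1000 ng/mL biotinylated hGal-3 for asialofetuin adsorbed on the plate (3 h, 4° C). Streptavidin-peroxidase at 80 ng/mL (1 h, 4° C) with ABTS gave a spectrophotometric read-out, and IC50 was reported as the mean of repeat runs.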

[2] = target: human Gal-1 (hGal-1) (Homo sapiens, UniProt P09382); assay: Competitive binding assay: binding of biotinylated hGal-1 to microplate-adsorbed asialofetuin (ASF); details: Activities on hGal-1; mean values of several measurements
Chain of human Gal-1 (hGal-1) (Homo sapiens, UniProt P09382) (P09382 2-135 limits assumed): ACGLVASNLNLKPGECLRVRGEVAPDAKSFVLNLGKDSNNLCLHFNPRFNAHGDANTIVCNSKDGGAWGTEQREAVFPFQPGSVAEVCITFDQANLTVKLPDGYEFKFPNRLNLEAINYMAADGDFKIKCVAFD
Procedure, shortened: (§1)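 For hGal-1, a variant with all six cysteines replaced by serines is preferred. Either galectin, biotinylated at 300-1000 ng/mL, competes with compound for microplate-bound ASF over 3 h at 4° C; peroxidase/ABTS detection gives IC50, averaged.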

[3] = target: human Gal-1 (hGal-1); assay: as above; details: Activities on hGal-1; mean values of several measurements
Chain of human Gal-1 (hGal-1) (P09382 2-135 limits assumed): as above
Procedure, shortened: as §1

Chain of human Gal-3 (hGal-3) (P17931 whole entry): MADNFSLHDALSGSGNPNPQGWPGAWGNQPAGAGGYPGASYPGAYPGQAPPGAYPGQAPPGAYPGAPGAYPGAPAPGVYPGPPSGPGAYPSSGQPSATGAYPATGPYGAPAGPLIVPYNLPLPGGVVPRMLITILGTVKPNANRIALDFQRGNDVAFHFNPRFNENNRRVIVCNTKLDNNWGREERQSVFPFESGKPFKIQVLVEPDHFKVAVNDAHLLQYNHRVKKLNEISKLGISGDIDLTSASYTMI

CC(C)(C)OC(=O)N1CCC(c2cc(C[C@H]3O[C@H](CO)[C@H](O)[C@H](n4cc(-c5cc(F)c(F)c(F)c5)nn4)[C@H]3OCC(F)F)no2)CC1 [Example 2.25, tert-butyl 4-(3-(((2R,3R,4S,5R,6R)-3-(2,2-difluoroethoxy)-5-hydroxy-6-(hydroxymethyl)-4-(4-(3,4,5-trifluorophenyl)-1H-1,2,3-triazol-1-yl)tetrahydro-2H-pyran-2-yl)methyl)issoxazole-5-yl)piperidine-1-carboxylate]
IC50 [1]: 170 nM | IC50 [2]: 1280 nM

CO[C@@H]1[C@@H](n2cc(-c3cc(F)c(F)c(F)c3)nn2)[C@@H](O)[C@@H](CO)O[C@@H]1C[C@@H]1CN(C2CCN(C(=O)C(C)C)CC2)C(=O)O1 [Example 5.13, (R)-5-(((2R,3R,4S,5R,6R)-5-hydroxy-6-(hydroxymethyl)-3-methoxy-4-(4-(3,4,5-trifluorophenyl)-1H-1,2,3-triazol-1-yl)tetrahydro-2H-pyran-2-yl)methyl)-3-(1-isobutyrylpiperidin-4-yl)oxazolidin-2-one]
IC50 [1]: 590 nM | IC50 [3]: 4730 nM

CO[C@@H]1[C@@H](n2cc(-c3cc(F)c(F)c(F)c3)nn2)[C@@H](O)[C@@H](CO)O[C@@H]1C[C@H]1CN(C2CCN(C(=O)OC(C)(C)C)CC2)C(=O)O1 [Example 5.14, tert-butyl 4-((S)-5-(((2R,3R,4S,5R,6R)-5-hydroxy-6-(hydroxymethyl)-3-methoxy-4-(4-(3,4,5-trifluorophenyl)-1H-1,2,3-triazol-1-yl)tetrahydro-2H-pyran-2-yl)methyl)-2-oxooxazolidin-3-yl)piperidine-1-carboxylate]
IC50 [1]: 340 nM | IC50 [3]: 6410 nM

CO[C@@H]1[C@@H](n2cc(-c3cc(F)c(F)c(F)c3)nn2)[C@@H](O)[C@@H](CO)O[C@@H]1C[C@@H]1CN(C2CCN(C(=O)OC(C)(C)C)CC2)C(=O)O1 [Example 5.15, tert-butyl 4-((R)-5-(((2R,3R,4S,5R,6R)-5-hydroxy-6-(hydroxymethyl)-3-methoxy-4-(4-(3,4,5-trifluorophenyl)-1H-1,2,3-triazol-1-yl)tetrahydro-2H-pyran-2-yl)methyl)-2-oxooxazolidin-3-yl)piperidine-1-carboxylate]
IC50 [1]: 50 nM | IC50 [3]: 210 nM

CO[C@@H]1[C@@H](n2cc(-c3cc(F)c(F)c(F)c3)nn2)[C@@H](O)[C@@H](CO)O[C@@H]1Cc1cc(C2CCC(F)(F)CC2)sn1 [Example 6.01, (2R,3R,4S,5R,6R)-6-((5-(4,4-difluorocyclohexyl)isothiazol-3-yl)methyl)-2-(hydroxymethyl)-5-methoxy-4-(4-(3,4,5-trifluorophenyl)-1H-1,2,3-triazol-1-yl)tetrahydro-2H-pyran-3-ol]
IC50 [1]: 560 nM | IC50 [3]: 6380 nM

CO[C@@H]1[C@@H](n2cc(-c3cc(F)c(F)c(F)c3)nn2)[C@@H](O)[C@@H](CO)O[C@@H]1Cc1cc(C2CCN(C(=O)OC(C)(C)C)CC2)sn1 [Example 6.02, tert-butyl 4-(3-(((2R,3R,4S,5R,6R)-5-hydroxy-6-(hydroxymethyl)-3-methoxy-4-(4-(3,4,5-trifluorophenyl)-1H-1,2,3-triazol-1-yl)tetrahydro-2H-pyran-2-yl)methyl)isothiazol-5-yl)piperidine-1-carboxylate]
IC50 [1]: 110 nM | IC50 [3]: 1970 nM

CO[C@@H]1[C@@H](n2cc(-c3cc(F)c(F)c(F)c3)nn2)[C@@H](O)[C@@H](CO)O[C@@H]1Cc1cc(C2CCNCC2)sn1 [Example 6.03, (2R,3R,4S,5R,6R)-2-(hydroxymethyl)-5-methoxy-6-((5-(piperidin-4-yl)isothiazol-3-yl)methyl)-4-(4-(3,4,5-trifluorophenyl)-1H-1,2,3-triazol-1-yl)tetrahydro-2H-pyran-3-ol]
IC50 [1]: 220 nM | IC50 [3]: 4160 nM

CO[C@@H]1[C@@H](n2cc(-c3cc(F)c(F)c(F)c3)nn2)[C@@H](O)[C@@H](CO)O[C@@H]1Cn1cnc(C(C)(C)C)c1 [Example 6.04, (2R,3R,4S,5R,6R)-6-((4-(tert-butyl)-1H-imidazol-1-yl)methyl)-2-(hydroxymethyl)-5-methoxy-4-(4-(3,4,5-trifluorophenyl)-1H-1,2,3-triazol-1-yl)tetrahydro-2H-pyran-3-ol]
IC50 [1]: 180 nM | IC50 [3]: 2380 nM

CO[C@@H]1[C@@H](n2cc(-c3cc(F)c(F)c(F)c3)nn2)[C@@H](O)[C@@H](CO)O[C@@H]1Cc1cn(-c2ccccc2)c(=O)o1 [Example 6.05, 5-(((2R,3R,4S,5R,6R)-5-hydroxy-6-(hydroxymethyl)-3-methoxy-4-(4-(3,4,5-trifluorophenyl)-1H-1,2,3-triazol-1-yl)tetrahydro-2H-pyran-2-yl)methyl)-3-phenyloxazol-2(3H)-one]
IC50 [1]: 250 nM | IC50 [3]: 8190 nM

CO[C@@H]1[C@@H](n2cc(-c3ccc(C)c(F)c3F)nn2)[C@@H](O)[C@@H](CO)O[C@@H]1CN1CC(=O)N(C2CCCCC2)C1 [Example 6.06, 3-cyclohexyl-1-(((2R,3R,4S,5R,6R)-4-(4-(2,3-difluoro-4-methylphenyl)-1H-1,2,3-triazol-1-yl)-5-hydroxy-6-(hydroxymethyl)-3-methoxytetrahydro-2H-pyran-2-yl)methyl)imidazolidin-4-one]
IC50 [1]: 42 nM | IC50 [3]: 1630 nM

CO[C@@H]1[C@@H](n2cc(-c3cc(F)c(F)c(F)c3)nn2)[C@@H](O)[C@@H](CO)O[C@@H]1CN1CN(C2CCN(C(C)=O)CC2)CC1=O [Example 6.07, 1-(1-acetylpiperidin-4-yl)-3-(((2R,3R,4S,5R,6R)-5-hydroxy-6-(hydroxymethyl)-3-methoxy-4-(4-(3,4,5-trifluorophenyl)-1H-1,2,3-triazol-1-yl)tetrahydro-2H-pyran-2-yl)methyl)imidazolidin-4-one]
IC50 [1]: 150 nM | IC50 [3]: 910 nM

CO[C@@H]1[C@@H](n2cc(-c3cc(F)c(F)c(F)c3)nn2)[C@@H](O)[C@@H](CO)O[C@@H]1CN1CC(=O)N(C2CCN(C(C)=O)CC2)C1 [Example 6.08, 3-(1-acetylpiperidin-4-yl)-1-(((2R,3R,4S,5R,6R)-5-hydroxy-6-(hydroxymethyl)-3-methoxy-4-(4-(3,4,5-trifluorophenyl)-1H-1,2,3-triazol-1-yl)tetrahydro-2H-pyran-2-yl)methyl)imidazolidin-4-one]
IC50 [1]: 22 nM | IC50 [3]: 73 nM

CO[C@@H]1[C@@H](n2cc(-c3cc(F)c(F)c(F)c3)nn2)[C@@H](O)[C@@H](CO)O[C@@H]1CN1CC(=O)N(C2CCCCC2)C1 [Example 6.09, 3-cyclohexyl-1-(((2R,3R,4S,5R,6R)-5-hydroxy-6-(hydroxymethyl)-3-methoxy-4-(4-(3,4,5-trifluorophenyl)-1H-1,2,3-triazol-1-yl)tetrahydro-2H-pyran-2-yl)methyl)imidazolidin-4-one]
IC50 [1]: 59 nM | IC50 [3]: 6720 nM

CO[C@@H]1[C@@H](n2cc(-c3cc(F)c(F)c(F)c3)nn2)[C@@H](O)[C@@H](CO)O[C@@H]1CN1CC(=O)N(C2CCOCC2)C1 [Example 6.10, 1-(((2R,3R,4S,5R,6R)-5-hydroxy-6-(hydroxymethyl)-3-methoxy-4-(4-(3,4,5-trifluorophenyl)-1H-1,2,3-triazol-1-yl)tetrahydro-2H-pyran-2-yl)methyl)-3-(tetrahydro-2H-pyran-4-yl)imidazolidin-4-one]
IC50 [1]: 37 nM | IC50 [3]: 890 nM

CCOC(=O)N1CCC(N2CN(C[C@H]3O[C@H](CO)[C@H](O)[C@H](n4cc(-c5cc(F)c(F)c(F)c5)nn4)[C@H]3OC)CC2=O)CC1 [Example 6.11, ethyl 4-(3-(((2R,3R,4S,5R,6R)-5-hydroxy-6-(hydroxymethyl)-3-methoxy-4-(4-(3,4,5-trifluorophenyl)-1H-1,2,3-triazol-1-yl)tetrahydro-2H-pyran-2-yl)methyl)-5-oxoimidazolidin-1-yl)piperidine-1-carboxylate]
IC50 [1]: 26 nM | IC50 [3]: 92 nM

(2R,3R,4S,5R,6R)-4-(4-(2,3-difluoro-4-methylphenyl)-1H-1,2,3-triazol-1-yl)-6-((3-(1-hydroxycyclobutyl)isoxazol-5-yl)methyl)-2-(hydroxymethyl)-5-methoxytetrahydro-2H-pyran-3-ol [Example 2.57]
IC50 [1]: 81 nM | IC50 [3]: 1450 nM

(2R,3R,4S,5R,6R)-4-(4-(4-chloro-2,3-difluorophenyl)-1H-1,2,3-triazol-1-yl)-6-((3-(1-hydroxycyclobutyl)isoxazol-5-yl)methyl)-2-(hydroxymethyl)-5-methoxytetrahydro-2H-pyran-3-ol [Example 2.58]
IC50 [1]: 60 nM | IC50 [3]: 1460 nM
